# Test results reported in ChEMBL document CHEMBL4513141, “CO-ADD screening of NIH (USA) - Clinical Collection” (2021).
# Tests used:
# Candida albicans = test: microbe, parasite or virus in culture; settings: ATCC 90028, ASSAY_TEST Inhibition of Fungal Growth, detection method Absorption (OD530), plate type 384well, NBS, CORNING #3640
# Description: Antifungal activity against Candida albicans ATCC 90028 (CO-ADD:FG_001); MIC in YNB media using NBS plates, by OD630
# Staphylococcus aureus = test: microbe, parasite or virus in culture; settings: ATCC 43300, 18 h, ASSAY_TEST Inhibition of Bacterial Growth, detection method Absorption (OD600), MEDIA CAMHB, plate type 384well, NBS, CORNING #3640
# Description: Antibacterial activity against Staphylococcus aureus MRSA ATCC 43300 (CO-ADD:GP_020); MIC in CAMBH media, using NBS plates, by OD(600)
# Pseudomonas aeruginosa = test: microbe, parasite or virus in culture; settings: ATCC 27853, 18 h, ASSAY_TEST Inhibition of Bacterial Growth, detection method Absorption (OD600), MEDIA CAMHB, plate type 384well, NBS, CORNING #3640
# Description: Antibacterial activity against Pseudomonas aeruginosa ATCC 27853 (CO-ADD:GN_042); MIC in CAMBH media using NBS plates, by OD(600)
# HEK293 = test: cells; assay type: functional, Homo sapiens, ATCC CRL1573; settings: Homo sapiens, ATCC CRL1573, HEK293; ASSAY_TEST Inhibition of Cell Viability; detection method Resazurin; Fluorescence (ex560/em590); MEDIA DMEM with 10% FBS; plate type 384well; TC; CORNING #3712; time 18 hr
# Escherichia coli = test: microbe, parasite or virus in culture; settings: ATCC 25922, 18 h, ASSAY_TEST Inhibition of Bacterial Growth, detection method Absorption (OD600), MEDIA CAMHB, plate type 384well, NBS, CORNING #3640
# Description: Antibacterial activity against Escherichia coli ATCC 25922 (CO-ADD:GN_001); MIC in CAMBH media using NBS plates, by OD(600)
# Klebsiella pneumoniae = test: microbe, parasite or virus in culture; settings: ATCC 700603, 18 h, ASSAY_TEST Inhibition of Bacterial Growth, detection method Absorption (OD600), MEDIA CAMHB, plate type 384well, NBS, CORNING #3640
# Description: Antibacterial activity against Klebsiella pneumoniae MDR ATCC 70063 (CO-ADD:GN_003); MIC in CAMBH media using NBS plates, by OD(600)
# Acinetobacter baumannii = test: microbe, parasite or virus in culture; settings: ATCC 19606, 18 h, ASSAY_TEST Inhibition of Bacterial Growth, detection method Absorption (OD600), MEDIA CAMHB, plate type 384well, NBS, CORNING #3640
# Description: Antibacterial activity against Acinetobacter baumannii ATCC 19606 (CO-ADD:GN_034); MIC in CAMBH media using NBS plates, by OD600
# Description for Cryptococcus neoformans: Antifungal activity against Cryptococcus neoformans H99 ATCC 208821 (CO-ADD:FG_002); MIC in YNB media using NBS plates, by Resazurin OD(600-570)
Structure (SMILES),MIC (Candida albicans) [µM],MIC (Staphylococcus aureus) [µM],MIC (Pseudomonas aeruginosa) [µM],CC50 (HEK293) [µM],MIC (Escherichia coli) [µM],MIC (Klebsiella pneumoniae) [µM],MIC (Acinetobacter baumannii) [µM],MIC (Cryptococcus neoformans) [µM]
O=c1[nH]cc(F)c(=O)[nH]1 [FLUOROURACIL],> 10,2.5,> 10,> 10,> 10,> 10,> 10,5
CO[C@H]1C=CO[C@@]2(C)Oc3c(C)c(O)c4c(O)c(c5c(nc6cc(C)ccn65)c4c3C2=O)NC(=O)C(C)=CC=C[C@H](C)[C@H](O)[C@@H](C)[C@@H](O)[C@@H](C)[C@H](OC(C)=O)[C@@H]1C,> 10,≤ 0.0781,2.5,> 10,10,> 10,10,> 10
C=CC1=C(C(=O)O)N2C(=O)[C@@H](NC(=O)/C(=N\O)c3csc(N)n3)[C@H]2SC1,> 10,5,> 10,> 10,2.5,10,> 10,> 10
CC1(C)SC2C(NC(=O)COc3ccccc3)C(=O)N2C1C(=O)O (stereo unspecified),> 10,> 10,> 10,> 10,> 10,> 10,> 10,> 10
CCN1CCN(C(=O)N[C@@H](C(=O)N[C@@H]2C(=O)N3[C@@H]2SC(C)(C)[C@@H]3C(=O)O)c2ccccc2)C(=O)C1=O [PIPERACILLIN SODIUM],> 10,> 10,> 10,> 10,10,> 10,10,> 10
CN(C)C1C(=O)C(C(N)=O)=C(O)C2(O)C(=O)C3=C(O)c4c(O)ccc(Cl)c4C(O)C3CC12 (stereo unspecified),> 10,1.25,2.5,> 10,5,> 10,> 10,> 10
CC(=O)Oc1ccccc1C(=O)Nc1ncc([N+](=O)[O-])s1 [NITAZOXANIDE],> 10,> 10,> 10,> 10,> 10,> 10,> 10,> 10
O=c1c2ccccc2[se]n1-c1ccccc1 [EBSELEN],5,> 10,> 10,> 10,> 10,> 10,> 10,2.5
N[C@@H](C(=O)N[C@@H]1C(=O)N2C(C(=O)O)=C(Cl)CS[C@H]12)c1ccccc1 [CEFACLOR ANHYDROUS],> 10,> 10,> 10,> 10,> 10,> 10,> 10,> 10
CC1c2cccc(O)c2C(=O)C2=C(O)C3(O)C(O)=C(C(N)=O)C(=O)C(N(C)C)C3C(O)C21 (stereo unspecified),> 10,0.625,0.312,> 10,1.25,> 10,> 10,> 10
CON=C(C(=O)NC1C(=O)N2C(C(=O)O)=C(COC(C)=O)CSC12)c1csc(N)n1 (stereo unspecified),> 10,> 10,> 10,> 10,0.312,> 10,> 10,> 10
CC[C@H]1OC(=O)[C@H](C)[C@@H](O[C@H]2C[C@@](C)(OC)[C@@H](O)[C@H](C)O2)[C@H](C)[C@@H](O[C@@H]2O[C@H](C)C[C@H](N(C)C)[C@H]2O)[C@](C)(O)C[C@@H](C)CN(C)[C@H](C)[C@@H](O)[C@]1(C)O [AZITHROMYCIN],> 10,> 10,10,> 10,10,> 10,> 10,> 10
